In US6599943B1, “Use of hydroxyguanidines” (WaPharm AB, priority 1996, dated 2003):

Tested on: rat spleen cytosol
Assay: Hydroxyguanidine reducing activity of spleen cytosol by radioligand binding assay
Format: biochemical
Details: 70 μM guanoxabenz, 1 hr at 25° C.
Method: Assay of hydroxyguanidine reducing activity by radioligand binding. The assay is based on the possibility to measure the affinity of ligands to α2-adrenoceptors by using radioligand binding. In a typical experiment small aliquots of the sample to be measured is added to an assay containing membranes rich in α2-adrenoceptors as well as a suitable concentration of a radioligand capable of binding to α2-adrenoceptors. After the assay mixture has been incubated for a suitable time, to achieve equilibrium, the amount of radioligand bound to the membranes is measured by washing and filtering on GF/C glass fibre filters using methods that are well described in literature, and which are commonly referred to as radioligand binding. The ability of the hydroxyguanidine and its product to inhibit the binding of the radioligand to the α2-adrenoceptor constituted a measure of the hydroxyguanidine/guanidine activity of the reaction mixture. A preferred hydroxyguanidine is one which corresponding guanidine show substantially different affinity compared to the hydroxyguanidine itself. A most preferred example of such a hydroxyguanidine is guanoxabenz.
In a more more exact version of the assay the “apparent affinity” of the mixture of hydroxyguanidine and guanidine-product is measured by constructing a complete competition curve for each sample to be measured. This is achieved by adding different dilutions of the reaction mixture to the radioligand binding assay. Since the sum of the concentration of the hydroxyguanidine and the guanidine product is known, the “apparent affinity” of the mixture can be calculated from the radioligand binding data using standard procedures for radioligand binding data analysis (Uhlén and Wikberg,1991). For the purpose of the present studies the apparent affinity of the reaction mixture was estimated from competition data by using a radioligand binding analysis computer software package (Wan System AB, Trillvägen 13, S-905 92 Umeå, Sweden). The fraction (q) of guanidine product obtained is then given by: [formula] […]

concentration of guanabenz in the sample: 17.5 µM
conversion of guanoxabenz to guanabenz: 25%
q (fraction of guanidine product): 0.25
Structure (SMILES): N=C(NO)NN=Cc1c(Cl)cccc1Cl [Guanoxabenz, 2(2,6-dichlorophenyl)methylene-N-hydroxyhydrazine carboxi-imidamide]
